The molecules below were run against T1, CFTR (Homo sapiens, UniProt P13569, DEL508-508) (assay: HBE2 assay: Ussing chamber assay of CFTR-mediated short-circuit currents). Settings: 3 μM corrector; F508del/MF-HBE cells; with 44 nM potentiator, 18-24 hours, 20% human serum.
T1 construct: endogenous in cells; host or cells: primary human bronchial epithelial cells from CF subjects (F508del/MF-HBE), differentiated at air-liquid interface
Type: cell-based
Summary of the method: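 F508del/MF-HBE cultured >14 days at air-liquid interface, mounted in Ussing chambers; transepithelial short-circuit current recorded under voltage clamp (Vhold=0 mV) at 37 °C. CFTR-mediated ISC (μA/cm^2) taken as peak forskolin response relative to steady-state current after inhibition; corrector activity assessed this way.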

T1 sequence (P13569 with tags, fused parts or gaps DEL508-508): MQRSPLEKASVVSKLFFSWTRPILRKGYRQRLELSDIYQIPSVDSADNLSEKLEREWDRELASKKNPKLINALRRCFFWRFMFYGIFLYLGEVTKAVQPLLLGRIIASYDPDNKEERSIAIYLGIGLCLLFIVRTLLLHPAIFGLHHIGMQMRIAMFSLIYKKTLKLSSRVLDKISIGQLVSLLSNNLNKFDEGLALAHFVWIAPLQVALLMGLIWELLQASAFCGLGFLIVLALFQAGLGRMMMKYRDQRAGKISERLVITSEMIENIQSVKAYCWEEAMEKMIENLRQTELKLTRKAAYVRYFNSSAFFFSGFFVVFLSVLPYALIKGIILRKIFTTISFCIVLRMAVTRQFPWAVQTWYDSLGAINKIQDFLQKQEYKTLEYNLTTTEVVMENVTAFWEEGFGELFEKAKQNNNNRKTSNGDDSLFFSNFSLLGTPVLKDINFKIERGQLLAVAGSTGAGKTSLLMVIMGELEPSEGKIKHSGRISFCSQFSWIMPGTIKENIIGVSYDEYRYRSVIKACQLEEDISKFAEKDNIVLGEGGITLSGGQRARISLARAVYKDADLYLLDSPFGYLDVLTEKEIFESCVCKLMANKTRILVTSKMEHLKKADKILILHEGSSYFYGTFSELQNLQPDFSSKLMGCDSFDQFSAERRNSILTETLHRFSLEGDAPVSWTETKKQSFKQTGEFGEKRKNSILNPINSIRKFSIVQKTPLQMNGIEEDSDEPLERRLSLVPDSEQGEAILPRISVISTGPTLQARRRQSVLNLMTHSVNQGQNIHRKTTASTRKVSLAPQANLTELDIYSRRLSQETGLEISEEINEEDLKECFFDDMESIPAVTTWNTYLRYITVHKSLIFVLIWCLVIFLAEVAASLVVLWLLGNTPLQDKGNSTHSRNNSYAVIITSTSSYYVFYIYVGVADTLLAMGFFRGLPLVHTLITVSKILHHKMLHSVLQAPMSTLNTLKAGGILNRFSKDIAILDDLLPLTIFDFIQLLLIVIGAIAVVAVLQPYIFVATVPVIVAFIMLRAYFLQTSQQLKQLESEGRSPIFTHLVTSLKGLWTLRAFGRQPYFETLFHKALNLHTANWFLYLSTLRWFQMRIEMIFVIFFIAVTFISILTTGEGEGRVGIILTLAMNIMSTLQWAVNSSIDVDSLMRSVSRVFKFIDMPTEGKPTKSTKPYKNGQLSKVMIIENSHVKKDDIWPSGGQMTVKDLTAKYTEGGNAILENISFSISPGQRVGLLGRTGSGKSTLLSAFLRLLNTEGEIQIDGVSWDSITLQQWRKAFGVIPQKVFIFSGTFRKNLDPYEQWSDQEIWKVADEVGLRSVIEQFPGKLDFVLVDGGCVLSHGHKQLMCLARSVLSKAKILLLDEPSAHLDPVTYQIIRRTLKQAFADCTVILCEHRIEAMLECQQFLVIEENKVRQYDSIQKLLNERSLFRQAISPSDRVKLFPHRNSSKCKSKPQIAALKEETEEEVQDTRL

Structure (SMILES) | HBE2 Activity at 3 μM (%)
Cc1cccc(C)c1-c1cc2nc(n1)NS(=O)(=O)c1cccc(c1)C(=O)N(Cc1cncc(N3CC4(CCC4)[C@H]3C(C)C)n1)[C@H](CC(C)(C)C)CO2 [Compound 1752] | +++ (+++ is >60+)
COC[C@@H]1CCN1c1cncc(CN2C(=O)c3cccc(c3)S(=O)(=O)Nc3nc(cc(-c4c(C)cccc4C)n3)OC[C@H]2CCC(C)(C)C)n1 [Compound 1730] | +++ (+++ is >60+)
Cc1cccc(C)c1-c1cc2nc(n1)NS(=O)(=O)c1cccc(c1)C(=O)N(Cc1cccc(N3CCC[C@H]3C)n1)[C@H](COC(C)C)CO2 [Compound 1954] | +++ (+++ is >60+)
Cc1cccc(C)c1-c1cc2nc(n1)NS(=O)(=O)c1cccc(c1)C(=O)N(Cc1nccc(N(C)C(C)C)n1)[C@H](CCC(C)(C)C)CO2 [Compound 1715] | +++ (+++ is >60+)
Cc1cccc(C)c1-c1cc2nc(n1)NS(=O)(=O)c1cccc(c1)C(=O)N(Cc1cnc3c(cc(C(C)C)n3C)n1)[C@H](CC(C)(C)C)CO2 [Compound 1858] | +++ (+++ is >60+)
Cc1cc(C)c(-c2cc3nc(n2)NS(=O)(=O)c2cccc(c2)C(=O)N(Cc2cncc(N(C)C4CCC4)n2)[C@H](CC(C)(C)C)CO3)c(C)c1 [Compound 1729] | +++ (+++ is >60+)
Cc1cccc(C)c1-c1cc2nc(n1)NS(=O)(=O)c1cccc(c1)C(=O)N(Cc1cncc(N(C)C3CC4(CC4)C3)n1)[C@H](CCC(C)C)CO2 [Compound 1796] | +++ (+++ is >60+)
CCC(CC)N(C)c1cncc(CN2C(=O)c3cccc(c3)S(=O)(=O)Nc3nc(cc(-c4c(C)cccc4C)n3)OC[C@H]2CC(C)(C)C)n1 [Compound 1754] | +++ (+++ is >60+)
Cc1cccc(C)c1-c1cc2nc(n1)NS(=O)(=O)c1cccc(c1)C(=O)N(Cc1cncc(N(C)CC(C)(C)C)n1)[C@H](CCC(C)C)CO2 [Compound 1795] | +++ (+++ is >60+)
Cc1cccc(C)c1-c1cc2nc(n1)NS(=O)(=O)c1cccc(c1)C(=O)N(Cc1cncc(N(C)C3CCC3)n1)[C@H](CCC1(C)CC1)CO2 [Compound 1336, 12-[[6-[cyclobutyl(methyl)amino]pyrazin-2-yl]methyl]-6-(2,6-dimethylphenyl)-11-[2-(1-methylcyclopropyl)ethyl]-2,2-dioxo-9-oxa-2λ^6-thia-3,5,12,19-tetrazatricyclo[12.3.1.14,8]nonadeca-1(18),4(19),5,7,14,16-hexaen-13-one] | +++ (+++ is >60+)
Cc1cccc(C)c1-c1cc2nc(n1)NS(=O)(=O)c1cccc(c1)C(=O)N(Cc1cnc3oc(C(C)C)cc3n1)[C@H](CC(C)(C)C)CO2 [Compound 1333, (11R)-6-(2,6-Dimethylphenyl)-11-(2,2-dimethylpropyl)-12-[(6-isopropylfuro[2,3-b]pyrazin-2-yl)methyl]-2,2-dioxo-9-oxa-2λ6-thia-3,5,12,19-tetrazatricyclo[12.3.1.14,8]nonadeca-1(18),4(19),5,7,14,16-hexaen-13-one] | +++ (+++ is >60+)
Cc1cccc(C)c1-c1cc2nc(n1)NS(=O)(=O)c1cccc(c1)C(=O)N(Cc1cncc(N(C)C3CCC3)n1)[C@H](C[C@H]1CCCOC1)CO2 (stereo in doubt) [Compound 1938] | +++ (+++ is >60+)
Cc1cccc(C)c1-c1cc2nc(n1)NS(=O)(=O)c1cccc(c1)C(=O)N(Cc1cncc(N3CCCC[C@H]3C)n1)[C@H](CC1CCCC1)CO2 [Compound 1847] | +++ (+++ is >60+)
CCN(c1cncc(CN2C(=O)c3cccc(c3)S(=O)(=O)Nc3nc(cc(-c4c(C)cccc4C)n3)OC[C@H]2COC2CC2)n1)C1CCC1 [Compound 1925] | +++ (+++ is >60+)
Cc1cccc(C)c1-c1cc2nc(n1)NS(=O)(=O)c1cccc(c1)C(=O)N(Cc1ncc(N3CCC(C)(C)C3)cn1)[C@H](COC(C)C)CO2 [Compound 1955] | +++ (+++ is >60+)
CCN(CCOC)c1cncc(CN2C(=O)c3cccc(c3)S(=O)(=O)Nc3nc(cc(-c4c(C)cccc4C)n3)OC[C@H]2CCC(C)(C)C)n1 [Compound 1811] | +++ (+++ is >60+)
Cc1cccc(C)c1-c1cc2nc(n1)NS(=O)(=O)c1cccc(c1)C(=O)N(Cc1cncc(N3CCC[C@H]3C)n1)[C@H](C[C@H]1CCCOC1)CO2 (stereo in doubt) [Compound 1940] | +++ (+++ is >60+)
Cc1cccc(C)c1-c1cc2nc(n1)NS(=O)(=O)c1cccc(c1)C(=O)N(Cc1cncc(N3CCCC4CCC43)n1)[C@H](CC1CC1)CO2 (stereo in doubt) [Compound 1838] | +++ (+++ is >60+)
Cc1cccc(C)c1-c1cc2nc(n1)NS(=O)(=O)c1cccc(c1)C(=O)N(Cc1cncc(N(C)C3CCC3)n1)[C@H](C1CCCCC1)CO2 [Compound 1733] | +++ (+++ is >60+)

Same assay, conditions: 3 μM; F508del/MF-HBE cells; with 44 nM potentiator; 18-24 hours; 20% human serum

Structure (SMILES) | HBE2 Activity at 3 μM (%)
CC[C@@H](C)Oc1cnc(CN2C(=O)c3cccc(c3)S(=O)(=O)Nc3nc(cc(-c4c(C)cccc4C)n3)OC[C@H]2CC2(C)CC2)nc1 [Compound 1555] | +++ (+++ is >60+)
Cc1cccc(C)c1-c1cc2nc(n1)NS(=N)(=O)c1cccc(c1)C(=O)N(Cc1ncc(N3CC(C)(C)C3)cn1)[C@H](CC(C)(C)C)CO2 (single isomer, unassigned) [Compound 1313] | +++ (+++ is >60+)
Cc1cccc(C)c1-c1cc2nc(n1)NS(=N)(=O)c1cccc(c1)C(=O)N(Cc1ncc(OC(C)C)cn1)[C@H](CC(C)(C)C)CO2 (stereo partly drawn) [Compound 1575] | +++ (+++ is >60+)
Cc1cccc(C)c1-c1cc2nc(n1)NS(=O)(=O)c1cccc(c1)C(=O)N(Cc1cncc(N3CCC4NC(=O)CC43)n1)[C@H](CC(C)(C)C)CO2 (stereo in doubt) [Compound 1622] | ++ (++ is 30-60%)
Cc1cccc(C)c1-c1cc2nc(n1)NS(=O)(=O)c1cccc(c1)C(=O)N(Cc1cnc(N3CC(C)(C)C3)cn1)[C@H](CC(C)(C)C)CO2 [Compound 1654] | +++ (+++ is >60+)
COC[C@@H]1CCN1c1cccc(CN2C(=O)c3cccc(c3)S(=O)(=O)Nc3nc(cc(-c4c(C)cccc4C)n3)OC[C@H]2CC(C)(C)C)n1 [Compound 1550] | +++ (+++ is >60+)
Cc1cccc(C)c1-c1cc2nc(n1)NS(=O)(=O)c1cccc(c1)C(=O)N(Cc1cncc(N(C)CCN(C)C(=O)OC(C)(C)C)n1)[C@H](CC(C)(C)C)CO2 [Compound 1648] | +++ (+++ is >60+)
Cc1cccc(C)c1-c1cc2nc(n1)NS(=O)(=O)c1cccc(c1)C(=O)N(Cc1cncc(N3CC4CC3(C)C4)n1)[C@H](CC(C)(C)C)CO2 [Compound 1691] | +++ (+++ is >60+)
Cc1cccc(C)c1-c1cc2nc(n1)NS(=O)(=O)c1cccc(c1)C(=O)N(Cc1cncc(N3C(=O)CC[C@H]3C)n1)[C@H](CC(C)(C)C)CO2 [Compound 1674] | +++ (+++ is >60+)
COC(=O)N(C)c1cccc(CN2C(=O)c3cccc(c3)S(=O)(=O)Nc3nc(cc(-c4c(C)cccc4C)n3)OC[C@H]2CC(C)(C)C)n1 [Compound 1584] | +++ (+++ is >60+)
CCCOc1cnc(CN2C(=O)c3cccc(c3)S(=O)(=O)Nc3nc(cc(-c4c(C)cccc4C)n3)OC[C@H]2CCC(C)C)nc1 [Compound 1577] | +++ (+++ is >60+)
Cc1cccc(C)c1-c1cc2nc(n1)NS(=O)(=O)c1cccc(c1)C(=O)N(Cc1cncc(N3CC4OCC[C@@H]43)n1)[C@H](CC(C)(C)C)CO2 (stereo in doubt) [Compound 1628] | +++ (+++ is >60+)
Cc1cccc(C)c1-c1cc2nc(n1)NS(=O)(=O)c1cccc(c1)C(=O)N(Cc1ncc(N3CCC(C)(C)C3)cn1)[C@H](CC1(C)CC1)CO2 [Compound 1561] | +++ (+++ is >60+)
COCC1CC2(CCN2c2cncc(CN3C(=O)c4cccc(c4)S(=O)(=O)Nc4nc(cc(-c5c(C)cccc5C)n4)OC[C@H]3CC(C)(C)C)n2)C1 (stereo partly drawn) [Compound 1706] | +++ (+++ is >60+)
Cc1cccc(C)c1-c1cc2nc(n1)NS(=O)(=O)c1cccc(c1)C(=O)N(Cc1cncc(N3CCC4C3CC(=O)N4C)n1)[C@H](CC(C)(C)C)CO2 (stereo partly drawn) [Compound 1639] | +++ (+++ is >60+)
Cc1cccc(C)c1-c1cc2nc(n1)NS(=O)(=O)c1cccc(c1)C(=O)N(Cc1cncc(N3CCCC3C(=O)N(C)C)n1)[C@H](CC(C)(C)C)CO2 (stereo partly drawn) [Compound 1660] | +++ (+++ is >60+)
COc1cc(CN2C(=O)c3cccc(c3)S(=O)(=O)Nc3nc(cc(-c4c(C)cccc4C)n3)OC[C@H]2CC(C)(C)C)nc(N(C)C2CCC2)c1 [Compound 1700] | +++ (+++ is >60+)
COCCCN(C)c1cncc(CN2C(=O)c3cccc(c3)S(=O)(=O)Nc3nc(cc(-c4c(C)cccc4C)n3)OC[C@H]2CC(C)(C)C)n1 [Compound 1693] | +++ (+++ is >60+)
Cc1cccc(C)c1-c1cc2nc(n1)NS(=O)(=O)c1cccc(c1)C(=O)N(Cc1cccc([C@@H](C)N3CCCC3)n1)[C@H](CC(C)(C)C)CO2 [Compound 1589] | ++ (++ is 30-60%)

Same assay, conditions: F508del/MF-HBE cells; corrector at a range of concentrations with 44 nM potentiator, 18-24 hours, 20% human serum

Structure (SMILES) | EC50
COC[C@@H]1CCN1c1cncc(CN2C(=O)c3cccc(c3)S(=O)(=O)Nc3nc(cc(-c4c(C)cccc4C)n3)OC[C@H]2CCC(C)(C)C)n1 [Compound 1730] | < 1000 nM
Cc1cccc(C)c1-c1cc2nc(n1)NS(=O)(=O)c1cccc(c1)C(=O)N(Cc1cncc(N(C)C3CCC3)n1)[C@H](C1CCCCC1)CO2 [Compound 1733] | < 1000 nM

Same assay, conditions: F508del/MF-HBE cells; with 44 nM potentiator; 18-24 hours; 20% human serum; read-out: HBE2 Max activity (%)

Structure (SMILES) | Emax
COC[C@@H]1CCN1c1cncc(CN2C(=O)c3cccc(c3)S(=O)(=O)Nc3nc(cc(-c4c(C)cccc4C)n3)OC[C@H]2CCC(C)(C)C)n1 [Compound 1730] | > 60%
Cc1cccc(C)c1-c1cc2nc(n1)NS(=O)(=O)c1cccc(c1)C(=O)N(Cc1cncc(N(C)C3CCC3)n1)[C@H](C1CCCCC1)CO2 [Compound 1733] | > 60%
